# Test results taken from US20260200903A1, “PHARMACEUTICAL COMPOSITION FOR AMELIORATING MALIGNANT DISEASES” (KINKI UNIVERSITY, priority 2020, published 2026).
# Legend:
# Assay type in all cases: cell-based
# [1] = test system: L363 cells (myeloma cell line); experiment: Cell death inducing effect on L363 cells, trypan blue staining; details: cell viability
# Description: (§1) L363 cells (myeloma cell line) were cultured under 5% CO2 at 37° C. The culture medium used RPMI-1640 medium with 100 μg/mL penicillin, 100 U/mL streptomycin and fetal bovine serum. L363 cells were seeded into 96-well plates and incubated with each concentration of the compounds was added, and cell viability was determined by the trypan blue staining.
# (§2) For controls, only 0.5% DMSO (diluted in PBS) used to dissolve the compounds was added. For each concentration, each bar line is indicated by an arrow with the sign “n, a, 1, 2, 3, 4, 5, 6, 7, 8, 9, 10, 11, 12” from left to right. The “1, 3, 5, 7, 9, 11” are omitted from the graph, but the sign “1” shall be indicated by an arrow between the signs “a” and “2”, the sign “3” between the signs “2” and “4”, and other odd numbers shall likewise be indicated by arrows between even numbers before and after.
# (§3) The sign “n” is the norathyriol (formula (n)) administration group, the sign “a” is the mangiferin 8a (formula (a)) administration group, the sign “1” is the yk-7 (formula (1)) administration group, the sign “2” is the yk-8-1 (formula (2)) administration group, the sign “3” is the yk-8-3 (formula (3)) administration group, the sign “4” is the M7 (formula (4)) administration group, the sign “5” is the M9 (formula (5)) administration group, the sign “6” is the M11 (formula (6)) administration group, the sign “7” is the M12 (formula (7)) administration group, the sign “8” is the M14 (formula (8)) administration group, the sign “9” is the M15 (formula (9)) administration group, the sign “10” is the M16 (formula (10)) administration group, the sign “11” is the M18 (formula (11)) administration group, the sign “12” is the M19 (formula (12)) administration group, respectively. The IC50 values for each compound is also listed in the upper right corner of the figure.
# [2] = test system: RPMI8226 cells (myeloma cell line); experiment: Cell death inducing effect on RPMI8226 cells, trypan blue staining; details: cell viability
# Description: as §1, with “RPMI8226” for “L363”
# as §2, §3
# phospho-IKK = experiment: Immunoblotting of phospho-IKK in KMS-28BM cells; details: 72 h, vs control, same concentrations as for phospho-NIK (0.005-100 μM)
# Description: (§4) Immunoblotting was performed on KMS-28BM cells to investigate the inhibitory effect of each compound administration on NIK inhibition and the activation of IKK, NF-κB p52, and NF-κB p65, which are downstream signals of NIK. As a result, inhibition of NIK activation, inhibition of IKK activity, and inhibition of nuclear translocation of NF-κB p52 and NF-κB p65 were observed (FIG. 15 and FIG. 16).
# (§5) As a control, compounds untreated KMS-28BM cells were seeded in 150 cm^2 flasks and incubated for 72 h at 37° C. and 5% CO2. KMS-28BM cells were seeded into 150 cm^2 flasks and pre-cultured for 24 h. After incubation, KMS-28BM cells were treated with […], 1 μM norathyriol, 0.5 μM M7 (formula (4)), 1 μM M8 (mangiferin 8a: listed in duplicate), 0.2 μM M9 (formula (5)), 5 μM yk-7 (formula (1)), 0.5 μM yk-8-3 (formula (3)) and 100 μM yk-8-1 (formula (2)) at final concentrations, and incubated for 72 h at 37° C. and 5% CO2. In addition, KMS-28BM cells were also treated with 0.5 μM M19 (formula (12)), 0.5 μM M18 (formula (11)), 0.005 μM M16 (formula (10)), […] (formula (9)), 0.005 μM M14 (formula (8)), 0.05 μM M12 (formula (7)) and […] (formula (6)) at the final concentrations, and incubated for 72 h at 37° C. and 5% CO2. Proteins were extracted from these cell suspensions with cell lysate and used as samples.
# (§6) The nucleus and cytoplasmic substrate were separated from the cells using the ProteoExtract (registered trademark) Subcellular Proteome Extraction Kit from Merck Ltd. to extract the cytoplasmic and nuclear fractions.
# (§7) After SDS-PAGE, each sample was transferred to a PVDF membrane and examined using anti-phospho-NIK, anti-NIK, anti-phospho-IKK, anti-IKK, anti-P-actin, anti-NF-κB p52 and anti-NF-κB p65 antibody, and anti-Lamin antibody.
# (§8) The antibody species is indicated in the vertical direction. Specifically, for anti-phospho-NIK antibody, “Phospho-NIK” was used, for anti-NIK antibody, “NIK” was used, for anti-phospho-IKK antibody, “Phospho-IKK” was used, for anti-IKK antibody, “IKK” was used, for anti-p-actin antibody, “p-actin” was used, for anti-NF-κB p52 antibody, “NF-κB p52 nuclear” was used, for anti-NF-κB p65 antibody, “NF-κB p65 nuclear” was used, and for anti-Lamin antibody, “Lamin” was used.
# NF-κB p52 nuclear = experiment: Immunoblotting of NF-κB p52 nuclear in KMS-28BM cells; details: nuclear fraction, 72 h, same concentrations (0.005-100 μM)
# Description: as §4, §5, §6, §7, §8
# CD20 = CD20 expression in KMS-28BM cells, flow cytometry; details: 10 days, concentration lower than the IC50 (0.005-50 μM), compared to the positive control
# Description: As a control, compounds untreated KMS-28BM cells were seeded in 75 cm^2 flasks and incubated for 10 days at 37° C. and 5% CO2. KMS-28BM cells were seeded into 75 cm^2 flasks and pre-cultured for 4 h. After incubation, KMS-28BM cells were treated with […], 0.05 μM M9, 0.1 μM yk-7, 0.1 μM yk-8-3, 50 μM yk-8-1, 0.5 μM M11, […], 0.005 μM M14, 0.005 μM M15, 0.005 μM M16, 0.5 μM M18, and 0.5 μM M19 at final concentrations, and incubated for 10 days at 37° C. and 5% CO2. This added amount is a concentration lower than the IC50 of the above compounds for KMS-28BM cells. After 10 days of incubation, cells were stained with anti-CD20 antibody, a B cell marker, and CD20 expression was measured using BD LSRFortessa. CCRF-SB cells were used as CD20-positive controls.
# Results are shown in FIG. 21, FIG. 22, FIG. 23, and FIG. 24. The horizontal axis represents the expression level of CD20 and the vertical axis represents the number of cells.
smiles,measurement,setting,value
"CCCCC(=O)OC[C@H]1O[C@@H](c2c(OC(=O)CCCC)cc3oc4cc(OC(=O)CCCC)c(OC(=O)CCCC)cc4c(=O)c3c2OC(=O)CCCC)[C@H](OC(=O)CCCC)[C@@H](OC(=O)CCCC)[C@@H]1OC(=O)CCCC [yk-8-1, 1,3,2′,3′,4′,6,6′,7-octa-O-valerylmangiferin]",IC50,[1],> 100 µM
same,IC50,[2],> 100 µM
same,phospho-IKK band density (anti-phospho-IKK antibody),phospho-IKK,decrease in band density
same,NF-κB p52 nuclear,NF-κB p52 nuclear,decreased
same,CD20 expression level,CD20,significantly increased
